In US7273951B2, “Polyhydroxy phenols and their use in binding p-selectin” (Astellas Pharma Inc., priority 2003, dated 2007):

Key:
human P-selectin [1] = target: T1, human P-selectin (Homo sapiens, UniProt P16109); test: Competition assay with biotin-PAA-Le^a-SO3H; details: read-out: IC50, inhibition of biotin-PAA-Le^a-SO3 binding to human P-selectin
T1 construct: purchased R&D Systems Europe Ltd., Abingdon, United Kingdom
Procedure: (§1) Gallic acid (Acros, Geel, Belgium) was assayed for its ability to inhibit TM11-PO binding to human P-selectin. […] For competition studies, a 96 wells microtiter plate (high binding, flat bottom, Costar, Corning, U.S.A.) was coated overnight at 4° C. with 10 μg/ml goat anti-human IgG (Fc specific) (Sigma-Aldrich, Zwijndrecht, the Netherlands) in coating buffer (50 mM NaHCO3, pH 9.6). Subsequently, wells were washed with assay buffer and incubated for 1 hour at 37° C. with blocking buffer (3% BSA in assay buffer). After washing with assay buffer, the wells were incubated for 2 hours at 37° C. with the human P-selectin IgG-Fc chimera (R&D Systems Europe Ltd., Abingdon, United Kingdom) (0.3 μg/ml). Subsequently, wells were washed with assay buffer and incubated for 1 hour at 4° C. with the TM11-PO complex. The wells were washed six times with washing buffer (0.1% Tween 20 in assay buffer). […] (TMB)/hydrogen peroxide (H2O2) (Pierce, Rochford, U.S.A.) was added and wells were incubated at room temperature for 15 minutes. The reaction was halted by addition of 2 M H2SO4 and the absorbance was measured at 450 nm.
(§2) To be able to test gallic acid binding also to other members of the selectin family (i.e. E- and L-selectin), biotin-PAA-Le^a-SO3H (Synthesone, Munich, Germany) instead of TM11-PO was used as ligand in the competition assay. This polyacrylamide (PAA) based polymer with attached sulfo-Lewis A groups, is an established selectin ligand.
(§3) Experimentally, the same procedure was used as in example 7 however with the following differences. After washing with assay buffer, the wells were incubated for 2 hours at 37° C. with the human P-selectin IgG-Fc chimera, mouse P-selectin IgG-Fc chimera, human L-selectin IgG-Fc chimera and human E-selectin IgG-Fc chimera respectively (all from R&D Systems Europe Ltd., Abingdon, United Kingdom) (0.3 μg/ml). Subsequently the wells of the microtiter plate were incubated with biotin-PAA-Le^a-SO3H (0.33 μg/ml) for 2 hours at 37° C., instead of with the TM11-PO-complex.

platelets = test: TRAP-induced platelet aggregation in platelet-rich plasma; type: cell-based, human; details: for Maximal platelet aggregation: TRAP 6.5 μM, human PRP
Procedure: Freshly drawn venous blood from healthy volunteers was collected with an informed consent into 1/10 volume of 3.2% tri-sodium citrate (w/v). These donors denied to have taken aspirin or other platelet function inhibitors during the previous ten days. Platelet-rich plasma (PRP) was prepared by centrifugation (150 g, 15 min, 22° C.). PRP was adjusted to a final concentration of 200,000 platelets/μl with platelet-poor plasma (PPP), which was obtained after an additional centrifugation step of the remaining blood (1100 g, 15 min, 22° C.). PRP was left for 30 min at 37° C. to ensure a resting state of the platelets. Afterwards, PRP was incubated for 5 min with different concentrations of gallic acid, EGCG or solvent at 37° C. Samples were transferred to an aggregometer (Kordia BV, Leiden, The Netherlands) to determine platelet aggregation at a stirring speed of 900 r.p.m. Platelet aggregation was initiated after preincubation with different concentrations of GA or EGCG (0, 50, 250 and 500 μM) by the addition of thrombin receptor activating peptide (TRAP, 6.5 μM, 37° C.).

human P-selectin [2] = target: T1, human P-selectin; test: Competition assay of gallic acid with TM11-PO; type: binding
Procedure: as §1

human E-selectin = target: T2, human E-selectin (Homo sapiens, UniProt P16581); test: Competition assay with biotin-PAA-Le^a-SO3H; type: binding; details: concentrations up to 1 mM; biotin-PAA-Le^a-SO3H ligand
T2 construct: purchased R&D Systems Europe Ltd., Abingdon, United Kingdom
T2 sequence (P16581 with tags, fused parts or gaps limits assumed): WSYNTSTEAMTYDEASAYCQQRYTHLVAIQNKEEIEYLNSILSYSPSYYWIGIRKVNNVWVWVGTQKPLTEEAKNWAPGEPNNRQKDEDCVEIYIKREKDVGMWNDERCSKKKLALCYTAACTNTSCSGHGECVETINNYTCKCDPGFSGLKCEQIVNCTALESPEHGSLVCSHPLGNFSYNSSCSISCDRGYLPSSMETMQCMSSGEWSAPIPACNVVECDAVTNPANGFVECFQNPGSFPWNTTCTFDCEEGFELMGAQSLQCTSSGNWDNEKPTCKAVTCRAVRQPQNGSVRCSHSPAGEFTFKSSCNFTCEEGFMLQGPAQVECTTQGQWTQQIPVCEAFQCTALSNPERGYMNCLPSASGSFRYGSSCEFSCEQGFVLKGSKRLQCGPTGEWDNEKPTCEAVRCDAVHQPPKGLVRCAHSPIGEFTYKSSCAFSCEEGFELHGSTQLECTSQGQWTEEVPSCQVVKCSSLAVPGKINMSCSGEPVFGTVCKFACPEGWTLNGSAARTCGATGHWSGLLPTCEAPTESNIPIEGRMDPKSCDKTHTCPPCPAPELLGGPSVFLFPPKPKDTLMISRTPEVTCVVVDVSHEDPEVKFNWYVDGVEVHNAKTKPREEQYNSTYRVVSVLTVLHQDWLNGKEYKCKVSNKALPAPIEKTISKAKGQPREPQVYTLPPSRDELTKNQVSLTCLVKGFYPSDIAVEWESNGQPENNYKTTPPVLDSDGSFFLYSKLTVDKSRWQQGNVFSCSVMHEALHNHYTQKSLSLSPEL
Procedure: as §1, §2, §3

human L-selectin = target: T3, human L-selectin (Homo sapiens, UniProt P14151); test: Competition assay with biotin-PAA-Le^a-SO3H; type: binding
T3 construct: purchased R&D Systems Europe Ltd., Abingdon, United Kingdom
T3 sequence (P14151 with tags, fused parts or gaps limits assumed): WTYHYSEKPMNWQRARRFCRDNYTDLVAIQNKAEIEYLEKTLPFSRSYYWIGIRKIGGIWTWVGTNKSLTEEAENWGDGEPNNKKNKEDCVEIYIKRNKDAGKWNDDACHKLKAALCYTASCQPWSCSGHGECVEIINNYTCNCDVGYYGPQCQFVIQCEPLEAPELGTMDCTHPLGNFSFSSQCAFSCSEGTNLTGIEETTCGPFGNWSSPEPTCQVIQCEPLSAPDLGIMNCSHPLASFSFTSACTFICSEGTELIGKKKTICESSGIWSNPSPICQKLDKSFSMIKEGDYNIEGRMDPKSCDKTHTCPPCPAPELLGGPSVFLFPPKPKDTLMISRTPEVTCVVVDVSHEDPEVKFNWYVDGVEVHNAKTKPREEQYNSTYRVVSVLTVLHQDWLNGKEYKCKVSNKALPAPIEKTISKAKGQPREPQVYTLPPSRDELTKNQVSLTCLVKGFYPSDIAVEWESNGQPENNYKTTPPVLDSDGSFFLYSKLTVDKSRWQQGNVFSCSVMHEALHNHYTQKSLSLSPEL
Procedure: as §1, §2, §3

mouse P-selectin = target: T4, mouse P-selectin (Mus musculus, UniProt Q01102); test: Competition assay with biotin-PAA-Le^a-SO3H; type: binding; details: biotin-PAA-Le^a-SO3H ligand
T4 construct: purchased R&D Systems Europe Ltd., Abingdon, United Kingdom
T4 sequence (Q01102 with tags, fused parts or gaps limits assumed): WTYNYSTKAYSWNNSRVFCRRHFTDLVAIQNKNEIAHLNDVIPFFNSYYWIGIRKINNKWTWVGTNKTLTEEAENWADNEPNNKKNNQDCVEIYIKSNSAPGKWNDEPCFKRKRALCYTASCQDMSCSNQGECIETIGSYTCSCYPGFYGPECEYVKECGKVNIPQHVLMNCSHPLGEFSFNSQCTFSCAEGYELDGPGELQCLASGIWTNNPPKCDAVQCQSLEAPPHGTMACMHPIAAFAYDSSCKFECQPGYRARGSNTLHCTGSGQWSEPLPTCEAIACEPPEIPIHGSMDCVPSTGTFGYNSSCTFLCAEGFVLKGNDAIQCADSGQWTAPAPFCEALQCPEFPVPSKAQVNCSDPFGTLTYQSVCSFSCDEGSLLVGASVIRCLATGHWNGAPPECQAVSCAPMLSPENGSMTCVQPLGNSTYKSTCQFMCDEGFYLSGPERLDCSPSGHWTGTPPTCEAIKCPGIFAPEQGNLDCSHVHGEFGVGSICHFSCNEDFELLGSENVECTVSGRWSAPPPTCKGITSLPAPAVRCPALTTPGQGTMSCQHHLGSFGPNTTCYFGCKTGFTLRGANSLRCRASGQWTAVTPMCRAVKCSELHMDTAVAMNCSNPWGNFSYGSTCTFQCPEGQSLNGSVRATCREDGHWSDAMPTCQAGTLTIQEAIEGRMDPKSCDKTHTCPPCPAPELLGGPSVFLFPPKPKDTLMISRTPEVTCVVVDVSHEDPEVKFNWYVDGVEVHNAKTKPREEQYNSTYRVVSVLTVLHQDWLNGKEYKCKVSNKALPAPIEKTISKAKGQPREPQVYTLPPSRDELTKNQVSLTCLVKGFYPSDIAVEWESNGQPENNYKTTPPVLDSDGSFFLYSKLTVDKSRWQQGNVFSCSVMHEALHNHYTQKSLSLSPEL
Procedure: as §1, §2, §3

[3] = test system: HL60 cells / human P-selectin expressing Chinese hamster ovary cells (CHO-P); test: Dynamic interactions between HL60 cells and CHO-P monolayers in parallel-plate perfusion chamber; type: cell-based
Procedure: Chinese hamster ovary (CHO) cells stably transfected with human P-selectin (CHO—P) were kindly donated by Dr. Modderman (University of Amsterdam, Amsterdam, the Netherlands). Cells were grown in DMEM (BioWhittaker Europe, Verviers, Belgium) containing 10% foetal calf serum (FCS) (BioWitthaker), 5 mM L-glutamine, 20,000 units penicillin/streptomycin (BioWhittaker) and 5 mM non-essential amino acids (Gibco, Paisley, United Kingdom). Flasks with cells were incubated at 37° C. in 5% CO2 for 3 or 4 days until cells had grown nearly confluent.
HL60 cells were from ATCC and grown in RPMI 1640 medium (BioWhittaker) with 10% FCS, 5 mM L-glutamine and 20,000 units penicillin/streptomycin.
Dynamic interactions between […], displaying a high expression of PSGL-1, the natural P-selectin ligand, and human P-selectin expressing Chinese hamster ovary cell (CHO—P cells) monolayers grown onto glass coverslips coated with 30 μg/ml collagen S (type I) (Roche Diagnosis, Brussels, Belgium) were analysed in a parallel-plate perfusion chamber with a method adapted from G. Theilmeier (Blood 1999, 94: 2725-2734). The coverslip constituted the bottom of the chamber and the actual chamber was formed by a 254-μm height silicon rubber gasket designed with a conically shaped flow path, thus resulting in a 3-fold increase of wall shear rate from the inlet of the chamber to the outlet. Calcein-AM labeled HL60 cells, suspended in RPMI (0.5×10^6/ml) were perfused at 37° C. and at a flow rate of 1 ml/min with an inverted syringe pump (Harvard Instruments, South Natick, Mass., U.S.A.). The flow chamber was mounted on the table platform of an inverted epifluorescence microscope (Diaphot; Nikon, Melville, N.Y., U.S.A.) coupled to a Cohu CCD video camera (COHU Inc, San Diego, Calif., U.S.A.) and HL60 cell translocation over CHO—P monolayers were measured at wall shear rates of 300 and 600 s-1. Gallic acid was added to HL60 cell suspensions 2 minutes before the onset of perfusion. To prevent oxidation, the gallic acid solution was prepared freshly. Real time movies of 12 seconds (10 images per second), recorded at predefined positions in the flow path corresponding to chosen wall shear rates were stored and digitised with a Scion LG3 frame grabber (Scion Corp, Frederick, Mich., U.S.A.). The average velocity of HL60 cells rolling over the CHO—P cells was calculated from the rolling distance of the HL60 cells in a 1 second timeframe, using the NIH Image program version 6.1. The number of adhered HL60 cells was counted from pictures taken during the same experiment.

[4] = test system: leukocyte-platelet conjugates rolling over femoral vein endothelium; test: In vivo rolling/tumbling of leukocyte-platelet conjugates (rosettes) over femoral vein endothelium; set-up: species or system mice
Procedure: Human blood was collected on 1:6 acid-citrate-dextrose (ACD: 93 mM trisodium citrate, 7 mM citric acid, 140 mM dextrose, pH 6.5) and 1 μM tirofiban. Human platelet rich plasma (PRP) was prepared via centrifugation at 150 g for 15 min. Murine blood was collected on 20 μg/ml hirudin and was centrifuged at 800 g for 30 sec, immediately followed by a second centrifugation at 150 g for 5 min to prepare PRP. The isolated PRP (human or murine) was then mixed with two volumes of ACD and recentrifuged at 800 g for 5 min. Subsequently, washed platelets were resuspended in HEPES-Tyrode's buffer (5 mM HEPES, 137 mM NaCl, 2.7 mM KCl, 12 mM NaHCO3, 0.36 mM NaH2PO4, 1% (w/v) glucose, pH 7.3) containing 1% (v/v) human serum albumin (HAS) at 10^6 platelets/μl. They were then incubated for 20 min at 37° C. with 5 μM calcein-AM, an acetoxymethyl ester, fluorescent once cleaved by non-specific esterases inside the cell, with no detectable effect on platelet function in our perfusion studies. The platelet suspension was then centrifuged at 700 g for 25 min and fluorescent platelets were resuspended in HEPES-Tyrode's buffer, and murine platelets were injected as such in mice.
All animal experiments were reviewed and approved by the Institutional Review Board of the University of Leuven and were performed in compliance with the guidelines of the International Society on Thrombosis and Haemostasis (Giles AR). For the study of platelet-assisted leukocyte rolling over the endothelial surface of blood vessels in vivo, on-line video microscopy was performed in mice. […] mice (6-12 weeks old) were anesthetized with Nembutal (70 mg/kg) via i.p. injection, and the jugular vein was catheterized. The femoral vein was exposed and mice were positioned on the table of an inverted epifluorescent microscope, such that the blood circulation in the femoral vein could be visualized through a Cohu CCD video camera. Fluorescent-labeled murine platelets were then injected in the catheterized jugular vein (500×10^6 platelets in 200 μl) and baseline rolling was recorded for the labeled platelets. […] After 5 min, the collagen-induced rolling and tumbling of leukocyte-platelet conjugates was then recorded for 10 min. The number of rosettes rolling were counted and their average tumbling speed was calculated from the registered movies. To address the effect of gallic acid on rosette rolling, it was infused 5 min prior to collagen administration and the rosette rolling was analysed as in the controls. […] Tumbling rosettes were counted 10 min after the collagen injection, before and after gallic acid infusion of 0.75 to 7.5 mg/kg.h. […]

T1 sequence (P16109 with tags, fused parts or gaps limits assumed): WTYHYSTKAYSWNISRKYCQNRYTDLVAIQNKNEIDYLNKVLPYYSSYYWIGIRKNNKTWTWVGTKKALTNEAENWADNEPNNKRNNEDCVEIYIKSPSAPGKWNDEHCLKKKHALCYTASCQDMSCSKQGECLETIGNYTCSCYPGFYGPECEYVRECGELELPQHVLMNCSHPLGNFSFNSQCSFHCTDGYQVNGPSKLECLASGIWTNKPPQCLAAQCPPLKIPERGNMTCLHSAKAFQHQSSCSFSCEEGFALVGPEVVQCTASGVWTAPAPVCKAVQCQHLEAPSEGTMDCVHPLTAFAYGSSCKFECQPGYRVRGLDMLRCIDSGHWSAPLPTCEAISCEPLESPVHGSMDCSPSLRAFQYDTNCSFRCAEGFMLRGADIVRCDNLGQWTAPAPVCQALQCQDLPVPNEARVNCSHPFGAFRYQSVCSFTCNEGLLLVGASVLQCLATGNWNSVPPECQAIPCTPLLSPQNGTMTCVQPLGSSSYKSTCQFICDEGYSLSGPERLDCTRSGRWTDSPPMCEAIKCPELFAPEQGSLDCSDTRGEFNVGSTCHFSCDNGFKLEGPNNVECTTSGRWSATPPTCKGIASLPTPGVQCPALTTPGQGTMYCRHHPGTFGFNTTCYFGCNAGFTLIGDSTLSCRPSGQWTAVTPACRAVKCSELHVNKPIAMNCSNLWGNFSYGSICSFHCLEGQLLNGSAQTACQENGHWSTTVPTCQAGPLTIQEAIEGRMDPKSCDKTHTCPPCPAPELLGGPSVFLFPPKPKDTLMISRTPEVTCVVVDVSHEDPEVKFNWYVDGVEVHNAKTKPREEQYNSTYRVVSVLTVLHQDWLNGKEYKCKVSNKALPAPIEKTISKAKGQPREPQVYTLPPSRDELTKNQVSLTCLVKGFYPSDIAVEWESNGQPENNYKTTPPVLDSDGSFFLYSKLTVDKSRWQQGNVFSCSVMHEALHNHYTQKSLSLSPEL

## O=C(O)/C=C/c1ccc(O)c(O)c1 [caffeic acid]
Human P-selectin [1]
  IC50: > 300 µM

## CCCCCCCCCCCCOC(=O)c1cc(O)c(O)c(O)c1 [n-dodecyl gallate]
Human P-selectin [1]
  IC50: > 300 µM
platelets; human platelets, not usable in aggregation test
  Platelet lysis: causes platelet lysis

## O=C(O)c1ccc(O)cc1 [4-hydroxy benzoic acid]
Human P-selectin [1]
  IC50: > 300 µM

## (−)-epigallocatechin gallate [EGCG]
Human P-selectin [1]
  IC50: 114 µM
platelets; 250 μM
  Maximal platelet aggregation: no significant inhibition
platelets; 500 μM
  Maximal platelet aggregation: inhibit platelet aggregation significantly

## O=C(O)c1cc(O)c(O)c(O)c1 [gallic acid, 3,4,5-trihydroxybenzoic acid]
Human P-selectin [2]
  IC50: 7.2 µM
Human P-selectin [1]
  IC50: ~85 µM
Human E-selectin
  Inhibition of E-selectin binding: less than 20%
Human L-selectin
  IC50: 241 µM
Mouse P-selectin
  Binding to P-selectin, mouse versus human: species-independent
[3]; 50 μM, wall shear rate 300 s^-1
  Change of HL60 cell adhesion to CHO-P monolayer vs untreated control: −34%
[3]; 50 μM, wall shear rate 600 s^-1
  Change of HL60 cell adhesion to CHO-P monolayer vs untreated control: −43%
[3]; 250 μM, wall shear rate 300 s^-1
  Change of HL60 cell adhesion to CHO-P monolayer vs untreated control: −41%
[3]; 250 μM, wall shear rate 600 s^-1
  Change of HL60 cell adhesion to CHO-P monolayer vs untreated control: −54%
[3]; 50 and 250 μM
  Rolling velocity of HL60 cells across CHO-P monolayer: doubled
[4]; C57/B16 mice (WT), FIG. 8A
  Conjugate rolling over femoral vein endothelium, number of conjugates rolling per unit of surface: Dose-dependent inhibition
[4]; aged atherosclerotic ApoE-/- mice, FIG. 8B
  Rolling of preformed leukocyte-platelet conjugates, percentage of rolling in absence of gallic acid: Inhibition
[4]; mice, at ED50 of rosette tumbling
  Effective plasma concentration corresponding to ED50: 40 µM
[4]; mice, infusion 0.75 to 7.5 mg/kg.h, counted 10 min after collagen injection
  ED50, dose giving half maximal inhibition of rosette tumbling: 1.5±0.4 mg/kg.h
platelets; 250 μM
  Maximal platelet aggregation: no significant inhibition
platelets; 500 μM
  Maximal platelet aggregation: inhibit platelet aggregation significantly
